Tests used:
HBV [1] = settings: Phase 1b clinical studies; cited from earlier work
HBV [2] = assay: HBV inhibition in HepAD38 cells, extracellular HBV DNA by direct qPCR; type: cell-based, hepatitis B virus; settings: Hepatitis B virus; 0.5 μM, HepAD38, 96 hours; read-out: HBV inhibition % (conc μM)
Description: HepAD38 cell line (Ladner et al., Antimicrob Agents Chemother, 1997, 41, 1715-20) was used for HBV inhibition assays. HepAD38 is a subclone, derived from hepatoblastoma cell line HepG2 (ATCC® Number: HB-8065™), that expresses HBV genome under the transcriptional control of a tetracycline-responsive promoter in a TET-OFF system: addition of tetracycline (TET) or doxycycline suppresses HBV replication, while its removal switches on the process allowing HBV viral particles release in the cell supernatant. HepAD38 cell line is maintained in DMEM/F12, supplemented with 10% of fetal bovine serum, 1% of glutamine, 1% of penicillin/streptomycin, 0.4 mg/ml G418 and 0.3 ug/ml tetracycline. For the HBV inhibition assay, doxycycline-free medium is used in order to allow virion production.
HBV inhibition activity in vitro was performed in 96 multiwell plates. During the initial (primary) screening compounds were first tested in triplicates at concentrations of 0.1 μM, 0.5 μM and 1 μM. For selected compounds, an 8-point dose-response curve was obtained using 1:2 serial dilutions (starting from 2.5 μM, 1.25 μM or 0.4 μM, depending on the degree of inhibition observed during the primary screening). From the dose-response curves, half maximal effective concentration (EC50) could be calculated (see also below).
In more detail, compounds—typically dissolved in DMSO stock solutions—were diluted to 2× the final desired concentration in 100 μl of the above medium (without doxycycline) and plated in three replicates in the 96-well plates.
Simultaneously, HepAD38 cells—extensively pre-washed in tetracycline-free medium in order to induce HBV production—were suspended at 2*10^4 cells in 100 μl of tetracycline-free medium and added to each well of the plate, to yield a final assay volume of 200 μl.
DMSO, used for stock solutions and compounds dilutions, is always present in the assays at a final concentration of 0.5%.
Plates were then incubated 96 hours at 37° C. and then subjected to cell viability assays and extracellular HBV quantification, in order to evaluate both the cytotoxic potential and the anti-viral activity of compounds.
Cytotoxicity was assessed by a commercial fluorescence assay that measures the metabolic activity of cells, directly related to cell viability (Cell Titer Blue, Promega). For each compound, cytotoxicity was evaluated at the same concentration employed to evaluate its anti-HBV activity. Anti-HBV activity was evaluated by quantification of extracellular HBV DNA with direct qPCR. In particular, supernatant was collected and centrifuged for cell debris clarification, viral DNA was extracted from virions by addition of lysis buffer (1 mM 1,4-dithiothreitol, 0.2% sodium dodecyl sulphate) and incubated at 95° C. for 10 min. Samples were then diluted 1:40 and real time PCR amplification was performed with SYBR green assay (Power SYBR™ Green PCR Master Mix-Thermo Fisher Scientific) and specific HBV primer (HBV-DF:5′-[…]-3′ (SEQ ID No. 1), HBV-DR:5′-[…]-3′ (SEQ ID No. 2)).
All HBV inhibition or antiviral activity data are typically reported in percent (%) relative to a non-treated reference sample. Excel and Graphpad Prism programs are typically used for data elaboration and EC50 calculation.

SMILES | reduction in HBV DNA (HBV [1]) | reduction in serum HBV RNA (HBV [1]) | inhibition at 0.5 µM (HBV [2])
O=C(Nc1cc(F)c(F)c(F)c1)c1ccc(F)c(S(=O)(=O)N2CCC(O)CC2)c1 [NVR3-778] | significant reduction | significant reduction | 
Nc1ccc(C(=O)Nc2cc(F)c(F)c(F)c2)cc1S(=O)(=O)NC1CCNCC1 [Example E28, 4-amino-3-(N-(piperidin-4-yl)sulfamoyl)-N-(3,4,5-trifluorophenyl)benzamide] |  |  | < 50%
Nc1ccc(C(=O)Nc2ccc(F)c(Cl)c2)cc1S(=O)(=O)N1CC(O)C1 [Example E55, 4-amino-N-(3-chloro-4-fluorophenyl)-3-((3-hydroxyazetidin-1-yl)sulfonyl)benzamide] |  |  | > 50%
